Measured values published in patent US20070275994A1, “Novel Antinfective Compounds” (priority 2003, published 2007).
Converted amounts (≈) assume the structure as drawn.

Experiments:
[1] = test system: Staphylococcus epidermidis MTCC 155; assay: MIC by microbroth dilution, Staphylococcus epidermidis MTCC 155; type: cell-based; settings: MTCC155, Mueller Hinton Broth, 37° C., 16-18 hrs, read-out: MIC, in vitro activity, Se
Method: (§1) The antibacterial spectrum and potency of a particular compound may be determined in a standard test system.
(§2) The minimum inhibitory concentrations (MIC's) of the compounds for the microorganisms listed in Table A were determined by preparing working solution for each compound of concentration of 128 μg/ml after dissolving it in DMSO. […] 30 μg/ml of Standard suspension of each organism which was prepared with turbidity equivalent to the 1:10 diluted 0.5 McFarland standard with density 10^7 CFU/ml, was added to each well to get approximately a density of 10^5 CFU/ml. These 96-well Tissue culture plate containing the test samples and positive and negative controls, were incubated at 37° C. for 16-18 hrs. The wells were visually inspected for growth and were also read at 630 nm by Automated Microplate Reader [(EL800) Trinity Biotech.] and the MIC's were recorded as the lowest concentration of drug which inhibits the growth of bacteria.
(§3) • Bp: Bacillus pumilus MTCC 1607 • S.e.: Staphylococcus epidermidis MTCC 155 • S.p.: Staphylococcus pyogenes MTCC 442 • S.a.1: Staphylococcus aureus MTCC 96 • S.a.2: Staphylococcus aureus ATCC 14154 • S.a.3: Staphylococcus aureus ATCC 25923 • S.a.4: Staphylococcus aureus ATCC 29213 • E.f.1: Enterococcus faecalis MTCC 439 • E.f.2: Enterococcus faecalis ATCC 14506 • K.0p.: Klebsiella pneumoniae ATCC 10031

[2] = test system: Staphylococcus aureus ATCC 14154; assay: MIC by microbroth dilution, Staphylococcus aureus ATCC 14154; type: cell-based; settings: ATCC14154, Mueller Hinton Broth, 37° C., 16-18 hrs, read-out: MIC, in vitro activity, Sa2
Method: as §1, §2, §3

[3] = test system: Bacillus pumilus MTCC 1607; assay: MIC by microbroth dilution, Bacillus pumilus MTCC 1607; type: cell-based; settings: 37° C., 16-18 hrs; for MIC: MTCC1607, Mueller Hinton Broth, read-out: MIC, in vitro activity, Bp; for MIC, in vitro activity, Bp: Mueller Hinton Broth
Method: as §1, §2, §3

[4] = test system: Staphylococcus aureus MTCC 96; assay: MIC by microbroth dilution, Staphylococcus aureus MTCC 96; type: cell-based; settings: 37° C., 16-18 hrs; for MIC: MTCC96, Mueller Hinton Broth, read-out: MIC, in vitro activity, Sa1; for MIC, in vitro activity, Sa1: Mueller Hinton Broth
Method: as §1, §2, §3

[5] = test system: Staphylococcus aureus ATCC 29213; assay: MIC by microbroth dilution, Staphylococcus aureus ATCC 29213; type: cell-based; settings: ATCC29213, Mueller Hinton Broth, 37° C., 16-18 hrs, read-out: MIC, in vitro activity, Sa4
Method: as §1, §2, §3

[6] = test system: Staphylococcus aureus ATCC 25923; assay: MIC by microbroth dilution, Staphylococcus aureus ATCC 25923; type: cell-based; settings: ATCC25923, Mueller Hinton Broth, 37° C., 16-18 hrs, read-out: MIC, in vitro activity, Sa3
Method: as §1, §2, §3

[7] = test system: Pseudomonas aeruginosa ATCC 27853; assay: MIC by microbroth dilution, Pseudomonas aeruginosa ATCC 27853; type: cell-based; settings: 37° C., 16-18 hrs; for MIC: ATCC27853, Mueller Hinton Broth, read-out: MIC, in vitro activity, Pa; for MIC, in vitro activity, Pa: Mueller Hinton Broth
Method: as §1, §2
P.a.: Pseudomonas aeruginosa ATCC 27853

[8] = test system: Enterococcus faecalis ATCC 14506; assay: MIC by microbroth dilution, Enterococcus faecalis ATCC 14506; type: cell-based; settings: ATCC14506, Mueller Hinton Broth, 37° C., 16-18 hrs, read-out: MIC, in vitro activity, Ef2
Method: as §1, §2, §3

[9] = test system: Staphylococcus pyogenes MTCC 442; assay: MIC by microbroth dilution, Staphylococcus pyogenes MTCC 442; type: cell-based; settings: MTCC442, Mueller Hinton Broth, 37° C., 16-18 hrs, read-out: MIC, in vitro activity, Sp
Method: as §1, §2, §3

[10] = test system: Enterococcus faecalis MTCC 439; assay: MIC by microbroth dilution, Enterococcus faecalis MTCC 439; type: cell-based; settings: 37° C., 16-18 hrs; for MIC: MTCC439, Mueller Hinton Broth, read-out: MIC, in vitro activity, Ef1
Method: as §1, §2, §3

Structure (SMILES)	MIC [1] [µg/mL]	MIC [2] [µg/mL]	MIC [3] [µg/mL]	MIC [4] [µg/mL]	MIC [5] [µg/mL]	MIC [6] [µg/mL]	MIC [7] [µg/mL]	MIC [8] [µg/mL]	MIC [9] [µg/mL]	MIC [10] [µg/mL]	melting point [°C]	MIC, in vitro activity, Pa [7] [µg/mL]	MIC, in vitro activity, Bp [3]	MIC, in vitro activity, Sa1 [4] [µg/mL]	MIC, in vitro activity, Ef1 ([10]; Mueller Hinton Broth) [µg/mL]
COc1c(N2CCc3sc(C(=O)O)cc3C2)c(F)cc2c(=O)c(C(=O)O)cn(C3CC3)c12 [Compound 22, 7-(2-carboxy-6,7-dihydro-4H-thieno[3,2-c]pyridin-5-yl)-1-cyclopropyl-6-fluoro-8-methoxy-4-oxo-1,4-dihydro-quinoline-3-carboxylic acid]			0.5 (≈ 1.09 µM)	4 (≈ 8.72 µM)			> 16			8 (≈ 17.4 µM)					
O=C(O)c1cn(C2CC2)c2c(F)c(N3CCc4sccc4C3)c(F)c(F)c2c1=O [Compound 16, 1-Cyclopropyl-7-(6,7-dihydro-4H-thieno[3,2-c]pyridin-5-yl)-5,6,8-fluoro-4-oxo-1,4-dihydro-quinoline-3-carboxylic acid]												>64	0.25 µg/mL (≈ 0.595 µM)	0.25 (≈ 0.595 µM)	
O=C(O)c1cn(C2CC2)c2cc(N3CCNCC3)c(F)cc2c1=O [Ciprofloxacin, ciprofloxacin, reference compound]	0.25 (≈ 0.754 µM)	0.5 (≈ 1.51 µM)	< 0.12	0.25 (≈ 0.754 µM)	0.25 (≈ 0.754 µM)	0.5 (≈ 1.51 µM)	0.5 (≈ 1.51 µM)	0.25 (≈ 0.754 µM)	0.5 (≈ 1.51 µM)	0.25 (≈ 0.754 µM)					
COc1c(N2CCc3sc(CO)cc3C2)c(F)cc2c(=O)c(C(=O)O)cn(C3CC3)c12 [Compound 21, 1-Cyclopropyl-6-fluoro-7-(2-hydroxymethyl-6,7-dihydro-4H-thieno[3,2-c]pyridin-5-yl)-8-methoxy-4-oxo-1,4-dihydro-quinoline-3-carboxylic acid]	0.25 (≈ 0.562 µM)		≤ 0.12	0.25 (≈ 0.562 µM)			16 (≈ 36 µM)			0.25 (≈ 0.562 µM)					
COc1c(N2CCc3sccc3C2)c(F)c([N+](=O)[O-])c2c(=O)c(C(=O)O)cn(C3CC3)c12 [Compound 15, 1-Cyclopropyl-7-(6,7-dihydro-4H-thieno[3,2-c]pyridin-5-yl)-6-fluoro-8-methoxy-5-nitro-4-oxo-1,4-dihydro-quinoline-3-carboxylic acid]			0.25 (≈ 0.544 µM)	1 (≈ 2.18 µM)											
COc1c(N2CCc3occc3C2C)c(F)cc2c(=O)c(C(=O)O)cn(C3CC3)c12 (stereo not drawn) [Compound 23, 1-Cyclopropyl-6-fluoro-8-methoxy-7-(4-methyl-6,7-dihydro-4H-fluoro[3,2-c]pyridin-5-yl)-4-oxo-1,4-dihydro-quinoline-3-carboxylic acid]												>16	≦0.12 μg/ml	8 (≈ 19.4 µM)	2 (≈ 4.85 µM)

The next lines start with results.

MIC [1] [µg/mL]	MIC [2] [µg/mL]	MIC [3] [µg/mL]	MIC [4] [µg/mL]	MIC [5] [µg/mL]	MIC [6] [µg/mL]	MIC [7] [µg/mL]	MIC [8] [µg/mL]	MIC [9] [µg/mL]	MIC [10] [µg/mL]	melting point [°C]	Structure (SMILES)	MIC, in vitro activity, Pa [7] [µg/mL]	MIC, in vitro activity, Bp [3]	MIC, in vitro activity, Sa1 [4] [µg/mL]	MIC, in vitro activity, Ef1 ([10]; Mueller Hinton Broth) [µg/mL]
0.25 (≈ 0.65 µM)	0.25 (≈ 0.65 µM)	≤ 0.12	0.25 (≈ 0.65 µM)	0.5 (≈ 1.3 µM)	0.5 (≈ 1.3 µM)						O=C(O)c1cn(C2CC2)c2cc(N3CCc4sccc4C3)c(F)cc2c1=O [Compound 14, 1-Cyclopropyl-7-(6,7-dihydro-4H-thieno[3,2-c]pyridin-5-yl)-6-fluoro-4-oxo-1,4-dihydro-quinoline-3-carboxylic acid]				
≤ 0.12		≤ 0.12	0.25 (≈ 0.544 µM)			1 (≈ 2.18 µM)	0.25 (≈ 0.544 µM)	≤ 0.12	≤ 0.12		COc1c(N2CCc3sc([N+](=O)[O-])cc3C2)c(F)cc2c(=O)c(C(=O)O)cn(C3CC3)c12 [Compound 19, 1-Cyclopropyl-6-fluoro-8-methoxy-7-(2-nitro-6,7-dihydro-4H-thieno[3,2-c]pyridin-5-yl)-4-oxo-1,4-dihydro-quinoline-3-carboxylic acid]				
≤ 0.12	≤ 0.12	≤ 0.12	≤ 0.12	0.25 (≈ 0.599 µM)	0.5 (≈ 1.2 µM)	16 (≈ 38.3 µM)	0.25 (≈ 0.599 µM)	≤ 0.12	≤ 0.12		Nc1c(F)c(N2CCc3sccc3C2)c(F)c2c1c(=O)c(C(=O)O)cn2C1CC1 [Compound 17, 5-Amino-1-cyclopropyl-7-(6,7-dihydro-4H-thieno[3,2-c]pyridin-5-yl)-6,8-difluoro-4-oxo-1,4-dihydro-quinoline-3-carboxylic acid]				
≤ 0.12	≤ 0.12	≤ 0.12	≤ 0.12	0.25 (≈ 0.603 µM)	0.5 (≈ 1.21 µM)	16 (≈ 38.6 µM)	0.25 (≈ 0.603 µM)	≤ 0.12	≤ 0.12	173 to 175	COc1c(N2CCc3sccc3C2)c(F)cc2c(=O)c(C(=O)O)cn(C3CC3)c12 [Compound 13, 1-Cyclopropyl-7-(6,7-dihydro-4H-thieno[3,2-c]pyridin-5-yl)-6-fluoro-8-methoxy-4-oxo-1,4-dihydro-quinoline-3-carboxylic acid]				
≤ 0.12	≤ 0.12	≤ 0.12	≤ 0.12	0.12 (≈ 0.32 µM)	0.25 (≈ 0.666 µM)	4 (≈ 10.7 µM)	0.5 (≈ 1.33 µM)	0.5 (≈ 1.33 µM)	0.5 (≈ 1.33 µM)		COc1c(N2CCNC(C)C2)c(F)cc2c(=O)c(C(=O)O)cn(C3CC3)c12 (stereo not drawn) [Gatifloxacin, gatifloxacin, reference compound]				
0.25 (≈ 0.565 µM)		≤ 0.12	≤ 0.12			8 (≈ 18.1 µM)		0.25 (≈ 0.565 µM)	≤ 0.12		COc1c(N2CCc3sc(C=O)cc3C2)c(F)cc2c(=O)c(C(=O)O)cn(C3CC3)c12 [Compound 20, 1-Cyclopropyl-6-fluoro-7-(2-formyl-6,7-dihydro-4H-thieno[3,2-c]pyridin-5-yl)-8-methoxy-4-oxo-1,4-dihydro-quinoline-3-carboxylic acid]				
